Like-named read-outs stand apart in the source and are kept apart here.
Tests used:
[1] = target: recombinant human His-tagged MDM2 protein (residues 1-118) (Homo sapiens (Human), UniProt Q00987); assay: Fluorescence-polarization MDM2 binding assay;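 also: fluorescence polarization read after three hours of incubation in potassium phosphate buffer containing bovine gamma globulin and Triton X-100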
[2] = tested on: Isogenic HCT-116 colon cancer cell lines; assay: cells; format: cell-based;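 also: cells grown in 96-well plates in McCoy's 5A medium with 10% FBS, exposed to compound for 4 days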
Description: Cells were seeded in 96-well flat bottom cell culture plates at a density of 2−3×10^3 cells/well with compounds and incubated for 4 days.

[3] = tested on: cancer cell lines with wild-type p53 / mutated or deleted p53 (ATCC); assay: Cell growth assay (WST-8), other cancer cell lines; format: cell-based
[4] = Table 19A, FP binding assay, read-out: MDM2 IC50
[5] = Homo sapiens, HCT-116, read-out: HCT-116 (p53-/-) IC50, Table 19A, HCT-116 p53-/-, cell growth
[6] = Homo sapiens, HCT-116, read-out: HCT-116 (p53 wild-type) IC50, Table 19A, HCT-116 p53 wild-type, cell growth
[7] = Homo sapiens, LNCaP, Table 19A, LNCAP cells, p53 wild-type, cell growth, read-out: LNCAP (p53 wild-type) IC50
[8] = Homo sapiens, PC-3, Table 19A, PC-3 cells, deleted p53, cell growth, read-out: PC-3 (deleted p53) IC50
[9] = Homo sapiens, SJSA-1, Table 19A, SJSA-1 cells, p53 wild-type, cell growth, read-out: SJSA-1 (p53 wild-type) IC50
[10] = Table 19B, read-out: Binding affinities to MDM2 protein as determined by FP based assay IC50
[11] = Homo sapiens, HCT-116, read-out: Inhibition of cell growth IC50, HCT116 p53 KO, Table 19B, HCT116 p53 KO
[12] = Homo sapiens, HCT-116, read-out: Inhibition of cell growth IC50, HCT116 p53 WT, Table 19B, HCT116 p53 WT
[13] = Homo sapiens, LNCaP, Table 19B, LNCaP cells, read-out: Inhibition of cell growth IC50, LNCaP
[14] = Homo sapiens, PC-3, Table 19B, PC3 cells, read-out: Inhibition of cell growth IC50, PC3
[15] = Table 19D, read-out: MDM2 Binding Affinities IC50
[16] = Homo sapiens, HCT-116, read-out: HCT116p53KO IC50, Table 19D, HCT116 p53KO
[17] = Homo sapiens, HCT-116, read-out: HCT116p53WT IC50, Table 19D, HCT116 p53WT
[18] = Homo sapiens, LNCaP, Table 19D, LNCaP cells, read-out: LNCaP IC50
[19] = Homo sapiens, PC-3, Table 19D, PC3 cells, read-out: PC3 IC50

Sequence of recombinant human His-tagged MDM2 protein (residues 1-118) (Q00987 1-118): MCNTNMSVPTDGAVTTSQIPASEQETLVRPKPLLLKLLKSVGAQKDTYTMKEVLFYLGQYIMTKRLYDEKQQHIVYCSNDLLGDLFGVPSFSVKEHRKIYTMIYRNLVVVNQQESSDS

## CC(=O)N1CC(NC(=O)[C@@H]2N[C@H](CC(C)(C)C)[C@]3(C(=O)Nc4cc(Cl)ccc43)[C@H]2c2cccc(Cl)c2F)C1 [MI-915]
[1]; [4]
  IC50: < 3 µM
[2]; [5]
  IC50: > 30 µM
[2]; [6]
  IC50: < 10 µM
[3]; [7]
  IC50: < 10 µM
[3]; [8]
  IC50: > 30 µM
[3]; [9]
  IC50: < 10 µM

## CC(C)(C)C[C@H]1N[C@@H](C(=O)NCC[C@@](C)(O)CO)[C@H](c2cccc(Cl)c2F)[C@@]12C(=O)Nc1cc(Cl)ccc12 [MI-790]
[1]; [4]
  IC50: < 3 µM
[2]; [5]
  IC50: > 10 µM
[2]; [6]
  IC50: < 3 µM
[3]; [7]
  IC50: < 3 µM
[3]; [8]
  IC50: > 10 µM
[3]; [9]
  IC50: < 3 µM

## CC(C)CC(C)(C)C[C@H]1N(C)[C@@H](C(=O)NCC[C@H](O)CO)[C@H](c2cccc(Cl)c2)[C@@]12C(=O)Nc1cc(F)c(F)cc12 [MI-737]
[1]; [10]
  IC50: > 1 µM
[2]; [11]
  IC50: 24.4 µM
[2]; [12]
  IC50: 5 µM
[2]; read-out: Inhibition of cell growth IC50, HCT116 p53 KO, Table 19B, HCT116 p53 KO
  IC50: 15 µM
[2]; read-out: Inhibition of cell growth IC50, HCT116 p53 WT, Table 19B, HCT116 p53 WT
  IC50: 4.5 µM
[3]; [13]
  IC50: 3.53 µM
[3]; [14]
  IC50: 11.3 µM
[3]; Table 19B, LNCaP cells, read-out: Inhibition of cell growth IC50, LNCaP
  IC50: 3.73 µM
[3]; Table 19B, PC3 cells, read-out: Inhibition of cell growth IC50, PC3
  IC50: 11.6 µM

## CC(C)(C)C[C@H]1N[C@@H](C(=O)NCC[C@H](O)COC(=O)CC(=O)O)[C@H](c2ccc(F)c(Cl)c2)[C@@]12C(=O)Nc1cc(Cl)c(F)cc12 [MI-319-26]
[1]; Table 19C, read-out: Bidning affinities to MDM2 as determined using FP assay IC50
  IC50: < 1 µM
[2]; Homo sapiens, HCT-116, read-out: Cell growth inhibition using WST assay, HCT116 p53KO IC50, Table 19C, HCT116 p53KO
  IC50: > 10 µM
[2]; Homo sapiens, HCT-116, read-out: Cell growth inhibition using WST assay, HCT116 p53WT IC50, Table 19C, HCT116 p53WT
  IC50: < 5 µM
[3]; Homo sapiens, LNCaP, Table 19C, LNCaP cells, read-out: Cell growth inhibition using WST assay, LNCaP IC50
  IC50: < 5 µM
[3]; Homo sapiens, PC-3, Table 19C, PC3 cells, read-out: Cell growth inhibition using WST assay, PC3 IC50
  IC50: > 10 µM

## C[C@@H](N)C(=O)OC1CCC(NC(=O)[C@@H]2N[C@H](CC(C)(C)C)[C@]3(C(=O)Nc4cc(Cl)ccc43)[C@H]2c2cccc(Cl)c2F)CC1 (some centres unmarked) [MI-906]
[1]; [4]
  IC50: < 1 µM
[2]; [5]
  IC50: 9.1 µM
[2]; [6]
  IC50: < 3 µM
[3]; [7]
  IC50: < 3 µM
[3]; [8]
  IC50: 3.6 µM
[3]; [9]
  IC50: < 3 µM

## CN1CCN(C(=O)[C@@H]2N[C@H](CC(C)(C)C)[C@]3(C(=O)Nc4cc(Cl)c(F)cc43)[C@H]2c2cccc(Cl)c2)CC1 [MI-740]
[1]; [4]
  IC50: < 5 µM
[2]; [5]
  IC50: 5.4 ± 1.9 µM
[2]; [6]
  IC50: 2.8 ± 0.1 µM
[3]; [7]
  IC50: 2 ± 0.3 µM
[3]; [8]
  IC50: 4.8 ± 0.8 µM

## CC(C)(C)C[C@H]1N[C@@H](C(=O)NC2CN(CC(C)(C)O)C2)[C@H](c2cccc(Cl)c2F)[C@@]12C(=O)Nc1cc(Cl)ccc12 [MI-909]
[1]; [4]
  IC50: < 1 µM
[2]; [5]
  IC50: > 5 µM
[2]; [6]
  IC50: < 3 µM
[3]; [7]
  IC50: < 3 µM
[3]; [8]
  IC50: > 5 µM
[3]; [9]
  IC50: < 3 µM

## CN1[C@@H](C(=O)NCC[C@H](O)CO)[C@H](c2cccc(Cl)c2)[C@@]2(C(=O)Nc3cc(Cl)c(F)cc32)[C@H]1CCCc1cccs1 [MI-711]
[1]; [10]
  IC50: > 5 µM
[2]; [11]
  IC50: 6.3 ± 2.9 µM
[2]; [12]
  IC50: 8.6 ± 1.2 µM
[3]; [13]
  IC50: 4.8 ± 1.1 µM
[3]; [14]
  IC50: 9.3 ± 2.5 µM

## CN1[C@@H](C(=O)NCC[C@H](O)CO)[C@H](c2cccc(Cl)c2F)[C@@]2(C(=O)Nc3cc(F)c(F)cc32)[C@H]1CC(C)(C)C [MI-519-10-me]
[1]; [15]
  IC50: < 10 µM
[2]; [16]
  IC50: > 30 µM
[2]; [17]
  IC50: > 1 µM
[3]; [18]
  IC50: > 1 µM
[3]; [19]
  IC50: > 30 µM

## CC(C)(C)C[C@H]1N[C@@H](C(=O)NCC[C@H](O)CO)[C@H](c2cccc(F)c2)[C@@]12C(=O)Nc1cc(F)c(F)cc12 [MI-519-11]
[1]; [15]
  IC50: > 5 µM
[2]; [16]
  IC50: > 10 µM
[2]; [17]
  IC50: > 5 µM
[3]; [18]
  IC50: > 5 µM
[3]; [19]
  IC50: > 10 µM

## CC(C)(C)C[C@H]1N[C@@H](C(=O)NCCCO)[C@H](c2cccc(Cl)c2)[C@@]12C(=O)Nc1cc(Cl)c(F)cc12 [MI-219-M8]
[1]; [15]
  IC50: < 1 µM
[2]; [16]
  IC50: 18 ± 4.1 µM
[2]; [17]
  IC50: 1.4 ± 0.9 µM
[3]; [18]
  IC50: 1.1 ± 0.5 µM
[3]; [19]
  IC50: 9.2 ± 1.6 µM

## CC(C)CC(C)(C)C[C@H]1N[C@@H](C(=O)NCC[C@H](O)CO)[C@H](c2cccc(Cl)c2)[C@@]12C(=O)Nc1cc(F)c(F)cc12 [MI-735]
[1]; [10]
  IC50: < 1 µM
[2]; [11]
  IC50: 8.5 ± 1.1 µM
[2]; [12]
  IC50: 1.2 ± 0.3 µM
[3]; [13]
  IC50: 1.1 ± 0.4 µM
[3]; [14]
  IC50: 8.6 ± 0.9 µM
